Earlier results as cited in paper PMC3826776 (Bioorganic & medicinal chemistry letters, 2011).

Columns and labels:
mGluR5 [1] = conditions: read-out: IC50 (literature values); literature value
mGluR5 [2] = conditions: read-out: Ki (literature values); literature value
[3] = test system: brain p-glycoprotein efflux pump (P-gp); conditions: stated without reference

SMILES	IC50 (mGluR5 [1])	Ki (mGluR5 [2])	P-gp substrate [3]
Cc1cccc(C#Cc2ccccc2)n1 [MPEP, 2-methyl-6-(phenylethynyl)-pyridine]	2 nM	12 nM	not P-gp substrates
Cc1nc(C#Cc2cccnc2)cs1 [MTEP, 3-[(2-methyl-1,3-thiazol-4yl)-ethynyl]-pyridine]	–	–	not P-gp substrates
